Measured values published in patent US9567291B2, “N-(4-(bis(4-(dimethylamino)phenyl)methylene)-8-(dimethylamino)” (EMORY UNIVERSITY, priority 2013, dated 2017).
“Also recorded” adds a separate entry of the source.

Assays:
Assay type in all cases: cell-based
LM36 cells = experiment: cell proliferation assay, LM36 cells; settings: 24 h treatment
Protocol: (§1) FIG. 1 illustrates the cell proliferation assay procedure. 5×10^4 cells were seeded in 24-well plates and incubated for 24 h. Stock solutions of PSB, PSMB, and IB were diluted into 5 mL of appropriate media samples for each treatment concentration (1 μM, 2.5 μM, etc). One mL was then added to each of the four wells per treatment concentration. Cells were incubated for 24 h in standard conditions. Cells were then washed with Phosphate Buffered Saline (Sigma Aldrich) and harvested by trypsinization (0.5 mL/well). Cells were incubated for 10 minutes in standard conditions and diluted into a 10 mL isotone solution. The isotone solution was subsequently placed into a cell counter, providing a count that represented 1/20 the number of cells per well.
(§2) A375 cells were grown in high-glucose Dulbecco's modified Eagle's medium (DMEM) (Mediatech) supplemented with fetal bovine serum (FBS) and penicillin/streptomycin (Sigma-Aldrich) in standard conditions (37° C., 5% CO2, humidified atmosphere). LM36 and LM36R cells were grown in cultured in RPMI medium supplemented with 10% FBS, L-glutamine and antibiotics in standard conditions (37° C., 5% CO2, humidified atmosphere).

A375 cells = experiment: cell proliferation assay, A375 cells; settings: 24 h treatment; for inhibition of cell proliferation: cell count, FIG. 4A/5A
Protocol: as §1, §2

LM36R cells = experiment: cell proliferation assay, LM36R cells; settings: 24 h treatment
Protocol: as §1, §2

Substance | antiproliferative potency compared to IB (LM36 cells) | antiproliferative potency compared to IB (A375 cells) | inhibition of cell proliferation (A375 cells) | antiproliferative potency compared to IB (LM36R cells) | inhibition of cell proliferation (LM36 cells; cell count, FIG. 4C/5C) | inhibition of cell proliferation (LM36R cells; cell count, FIG. 4B/5B)
N-(4-(bis(4-(diethylamino)phenyl)methylene)-8-(dimethylamino) naphthalen-1(4H)-ylidene)-N-methylmethanaminium [PSB] | Such a trend is not observed | only exhibits greater antiproliferative effects in A375 cells; also recorded: more potent than IB | inhibits A375 proliferation in a concentration-dependent fashion | Such a trend is not observed |  | 
N-(4-(bis(4-(dimethylamino)phenyl)methylene)-8-(dimethylamino)naphthalen-1(4H)-ylidene)-N-methylmethanaminium [PSMB] | greater antiproliferative effects than IB; also recorded: more potent inhibition than IB | greater antiproliferative effects than IB; also recorded: more potent inhibition than IB | anti-proliferative effects that operate in a concentration-dependent fashion | greater antiproliferative effects than IB; also recorded: more potent inhibition than IB | anti-proliferative effects that operate in a concentration-dependent fashion | anti-proliferative effects that operate in a concentration-dependent fashion
